# Measurements: ChEMBL document CHEMBL3856280, “Targeting the HSP60/10 chaperonin systems of Trypanosoma brucei as a strategy for treating African sleeping sickness” (Bioorg Med Chem Lett, 2016)
# Key:
# HSP60/HSP10 [1] = target: T1, HSP60/HSP10 (Homo sapiens, UniProt P10809); experiment: Inhibition of human mitochondrial HSP60/HSP10-ATPase activity expressed in Escherichia coli DH5alpha/BL21 (DE3) assessed as inhibition of denatured MDH refolding preincubated for 10 mins followed by ATP addition measured after 40 to 60 mins by malachite green dye based fluorescence assay
# T1 sequence (P10809 whole entry): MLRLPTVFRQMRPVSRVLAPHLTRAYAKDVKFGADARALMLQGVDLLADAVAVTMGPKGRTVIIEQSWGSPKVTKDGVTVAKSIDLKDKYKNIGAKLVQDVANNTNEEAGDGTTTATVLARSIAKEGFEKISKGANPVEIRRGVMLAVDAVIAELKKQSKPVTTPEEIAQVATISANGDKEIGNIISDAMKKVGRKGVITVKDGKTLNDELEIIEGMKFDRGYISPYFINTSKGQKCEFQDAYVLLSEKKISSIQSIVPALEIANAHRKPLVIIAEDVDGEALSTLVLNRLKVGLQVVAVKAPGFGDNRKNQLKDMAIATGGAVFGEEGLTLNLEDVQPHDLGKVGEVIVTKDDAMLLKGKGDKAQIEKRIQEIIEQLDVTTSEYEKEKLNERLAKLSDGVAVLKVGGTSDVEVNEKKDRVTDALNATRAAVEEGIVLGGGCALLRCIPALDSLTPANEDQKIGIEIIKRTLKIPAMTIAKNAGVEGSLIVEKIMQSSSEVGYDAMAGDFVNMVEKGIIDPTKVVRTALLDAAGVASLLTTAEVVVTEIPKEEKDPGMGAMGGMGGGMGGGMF
# T1 sequence (P61604 whole entry, further chain): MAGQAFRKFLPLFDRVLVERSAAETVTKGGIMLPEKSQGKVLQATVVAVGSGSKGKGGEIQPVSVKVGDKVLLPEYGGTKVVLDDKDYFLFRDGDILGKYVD
# HSP60/HSP10 [2] = target: T1, HSP60/HSP10; experiment: Inhibition of human mitochondrial HSP60/HSP10 expressed in Escherichia coli DH5alpha/BL21 (DE3) assessed as inhibition of denatured MDH refolding preincubated for 10 mins followed by ATP addition measured after 40 to 60 mins by fluorescence based assay
# E. coli GroEL/ES [3] = target: T2, E. coli GroEL/ES (Escherichia coli, UniProt P0A6F5); experiment: Inhibition of Escherichia coli GroEL/GroES expressed in Escherichia coli DH5alpha/BL21 (DE3) assessed as inhibition of denatured MDH refolding preincubated for 10 mins followed by ATP addition measured after 20 to 40 mins by fluorescence based assay
# T2 sequence (P0A6F5 whole entry, looked up): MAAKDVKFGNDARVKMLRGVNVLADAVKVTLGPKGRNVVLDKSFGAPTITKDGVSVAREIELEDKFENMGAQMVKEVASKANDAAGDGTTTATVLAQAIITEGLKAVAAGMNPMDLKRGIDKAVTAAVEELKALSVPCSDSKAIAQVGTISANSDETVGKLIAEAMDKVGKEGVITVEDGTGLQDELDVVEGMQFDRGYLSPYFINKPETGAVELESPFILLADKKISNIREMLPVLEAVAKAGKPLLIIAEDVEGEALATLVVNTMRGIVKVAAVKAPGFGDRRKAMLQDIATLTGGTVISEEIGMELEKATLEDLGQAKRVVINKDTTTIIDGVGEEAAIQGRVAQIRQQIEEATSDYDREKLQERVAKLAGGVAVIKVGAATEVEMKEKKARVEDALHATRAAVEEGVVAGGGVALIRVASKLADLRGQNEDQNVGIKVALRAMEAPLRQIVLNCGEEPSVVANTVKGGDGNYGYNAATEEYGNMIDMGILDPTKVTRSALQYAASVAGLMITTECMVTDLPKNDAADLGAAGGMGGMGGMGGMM
# E. coli GroEL/ES [4] = target: T2, E. coli GroEL/ES; experiment: Inhibition of Escherichia coli GroEL/GroES-ATPase activity expressed in Escherichia coli DH5alpha/BL21 (DE3) assessed as inhibition of denatured MDH refolding preincubated for 10 mins followed by ATP addition measured after 20 to 40 mins by malachite green dye based fluorescence assay
# [5] = Inhibition of pig heart native MDH reporter reaction after 20 to 40 mins by fluorescence based assay; parameters: species or system Sus scrofa
# [6] = system: Trypanosoma brucei brucei; experiment: Antitrypanosomal activity against Trypanosoma brucei brucei Lister 427 VSG 221 [TetR T7RNAP] transgenic bloodstream forms assessed as reduction in cell viability after 48 hrs by alamar blue assay; format: functional; details: Lister 427 VSG 221, 48 h
# [7] = Cytotoxicity against HEK293 cells assessed as reduction in cell viability after 48 hrs by alamar blue assay; format: toxicity, cell-based; details: human
# [8] = Cytotoxicity against human THLE3 cells assessed as reduction in cell viability after 48 hrs by alamar blue assay; format: toxicity, cell-based
SMILES,IC50 (HSP60/HSP10 [1]),IC50 (HSP60/HSP10 [2]),IC50 (E. coli GroEL/ES [3]),IC50 (E. coli GroEL/ES [4]),IC50 [5],EC50 [6],EC50 at 48 h [7],EC50 at 48 h [8]
O=C(O)c1cccc(S(=O)(=O)Nc2ccc(-c3nc4cc(NS(=O)(=O)c5cccc(C(=O)O)c5)ccc4o3)cc2)c1,> 250 µM,81 µM,61 µM,> 250 µM,41 µM,> 42 µM,> 100 µM,> 100 µM
O=C(O)c1ccccc1S(=O)(=O)Nc1ccc(-c2nc3cc(NS(=O)(=O)c4ccccc4C(=O)O)ccc3o2)cc1,> 250 µM,> 100 µM,> 100 µM,> 250 µM,> 63 µM,> 42 µM,> 100 µM,> 100 µM
COC(=O)c1ccc(S(=O)(=O)Nc2ccc(-c3nc4cc(NS(=O)(=O)c5ccc(C(=O)OC)cc5)ccc4o3)cc2)cc1,> 250 µM,87 µM,26 µM,91 µM,> 63 µM,23 µM,> 100 µM,> 100 µM
O=C(O)c1ccc(S(=O)(=O)Nc2ccc(-c3nc4cc(NS(=O)(=O)c5ccc(C(=O)O)cc5)ccc4o3)cc2)cc1,> 250 µM,> 100 µM,83 µM,> 250 µM,> 63 µM,> 42 µM,> 100 µM,> 100 µM
NCCCC(N)(C(=O)O)C(F)F (centres undefined) [EFLORNITHINE],> 250 µM,> 100 µM,> 100 µM,> 250 µM,> 63 µM,> 42 µM,> 100 µM,> 100 µM
CC1CS(=O)(=O)CCN1/N=C/c1ccc([N+](=O)[O-])o1 (centres undefined) [NIFURTIMOX],> 250 µM,> 100 µM,> 100 µM,> 250 µM,> 63 µM,2.8 µM,> 100 µM,> 100 µM
N=C(N)c1ccc(OCCCCCOc2ccc(C(=N)N)cc2)cc1 [PENTAMIDINE],> 250 µM,> 100 µM,> 100 µM,> 250 µM,> 63 µM,< 0.019 µM,> 100 µM,19 µM
Cc1ccc(C(=O)Nc2ccc(S(=O)(=O)O)c3cc(S(=O)(=O)O)cc(S(=O)(=O)O)c23)cc1NC(=O)c1cccc(NC(=O)Nc2cccc(C(=O)Nc3cc(C(=O)Nc4ccc(S(=O)(=O)O)c5cc(S(=O)(=O)O)cc(S(=O)(=O)O)c45)ccc3C)c2)c1 [SURAMIN],> 250 µM,11 µM,7.9 µM,> 250 µM,> 63 µM,0.12 µM,> 100 µM,> 100 µM
